The source of these data is patent US9321804B2, “Synthesis and use of anti-tumor drug LQC-Y” (Beijing University of Chinese Medicine, priority 2011, dated 2016).

Entries after “also recorded” stand apart in the source; their conditions may differ.

The test system of data set [1] is Human hepatoma carcinoma cells Bel7402. In words: Proliferation of human hepatoma carcinoma cells Bel7402 by MTT. The format is cell-based. The note with it: 40 μg/ml.
The test system is the same in data set [2]. Described as above. Type of data set: cell-based. To be noted: for 24 h inhibition ratio (%): Bel7402 cells. As for the experimental part:
Human hepatoma carcinoma cells Bel7402 were recovered and subcultured using a culture flask. The preparation of the experiment was started when the cell growth entered into the exponential growth phase. The cells were then digested using pancreatic enzyme which had been filtrated at an increased pressure to prepare the cell suspension. After that the suspension was dyed for 3 min with 0.4% trypan blue. Then a blood cell counting plate was used to count the living cells which were not dyed and the dead cells which were dyed to blue. The number of the living cells identified by trypan blue was more than 98%.
Three kinds of cells which were in the exponential growth phase were inoculated at the density of 1×10^4/ml, to a 96-well plate, 200 μl for each well. Then the plate was put in a 37° C. 5% CO2 incubation box to be cultured for 24 h. The cultivation liquid was sucked away and 200 μl LQC-Y solutions of different concentrations were added thereinto (prepared with DMEM cultivation liquid containing 4% calf serum and the final concentration of which respectively were 10 μg, 20 μg, 40 μg), 4 parallel wells for each concentration. Supernatant cultivation liquid 100 μl was sucked away carefully from each well after being cultured for 24 h and 48 h, and MTS 20 μl was added into each well and homogeneously mixed. The resultant liquid was cultured in a 37° C. 5% CO2 incubation box for a further 1 h. An enzyme-labeling quantitative instrument was used to measure the absorbance at 492 nm. The experiment was repeated for 3 times and then an inhibition ratio was calculated.
The inhibition ratio of cell proliferation (%)=[(average OD value of control group-average OD value of the administration group)/average OD value of control group]×100%

Data set [3] deals with small vessel growth of CAM model. Kind of data set: Effect of LQC-Y on tumor angiogenesis using CAM method (small vessel count). The format is in vivo, chicken. To be noted: compared with the blank group. The procedure: Aseptic gelatin sponge, which was made into a wafer having a diameter of 5 mm by a hole-puncher in advance, was used as sample carrier. The prepared derivatives of bromotetramethylpyrazine series were added thereinto in an aseptic environment and different dosage groups were set according to the difference of the molecular weight of each medicine, including 10 μg/chicken embryo, 20 μg/chicken embryo and 40 μg/chicken embryo. The 0.9% physiological saline was used in a blank group. The samples were air-dried in an aseptic environment.
A hatching egg after disinfection was put into a 37° C. incubation box with air sac upward until the seventh day of incubation. The egg embryo was disinfected using alcohol at a super clean bench, and then a small hole was drilled at the top of the egg embryo using a dental drill, and the nearby egg shell and shell membrane were removed carefully to form a opening with the size of about 1.2 cm×1.2 cm. […]
After the incubation, the transparent tape blocking the chicken embryo air sac was softly removed with a nipper. […] The effect of the compounds on angiogenesis was evaluated by the count analytic method using the numbers of great vessels, medium vessels and small vessels arranged radially around the carrier. […]

A further data set concerns S180 sarcoma of mice. Kind of data set: Tumor inhibiting effect of LQC-Y2 in tumor bearing S180 mice. To be noted: for Tumor inhibiting ratio (%) / Tumor weight: S180 Balb/C mice, 15 days. The procedure: The S180 mice that had been inoculated for 7 days were killed by breaking the neck thereof and ascites was taken from the mice respectively in an aseptic environment and the ascites was washed using RPMI1640 culture medium for 2 times and then made into a […] /ml cell suspension using aseptic physiological saline. Then the obtained S180 cell suspension was inoculated hypodermically at the right axillary of mice, 0.1 ml for each mouse and 50 mice total, to establish the solid tumor model.
60 mice were divided into 2 categories, including 6 groups, according to the random number table method, i.e. normal control group of the first category, and S180 solid tumor groups of the second category which included positive (cyclophosphamide) control group, negative control group, small dosage group, middle dosage group and large dosage group, 10 mice for each group. The experiment was repeated for 3 times.
LQC-Y2 was made into an emulsion using corn oil. The dosage of the small dosage group was 75 mg/Kg, the dosage of the middle dosage group was 150 mg/Kg, and the dosage of the large dosage group was 300 mg/kg. Equal volume of corn oil was injected into the mice of the negative control group, cyclophosphamide injection 0.02 g/(Kg.d) was injected into the mice of the positive control group. These medicines were administrated 0.1 ml per mouse by intraperitoneal injection every the other day continuously for 15 days. During this period, the common behavior, hair and excrement and so on were observed daily. The mice that had been inoculated with S180 by hypodermic inoculation were killed by breaking the necks thereof after 24 h after the last administration and the tumor, liver and spleen were then taken.
The weight of the solid tumor group mice were measured after all the administration was over and then the mice were killed. The spleens and the livers thereof were weighed by an electronic balance. The spleen index was calculated as the spleen weight of a mouse (mg)/the body weight of a mouse(g) and the liver index was calculated as the liver weight of a mouse[…]/the body weight of a mouse(g).
The solid tumor negative control group mice were weighed on the next day after the administration was finished (the eyeballs of the mice were removed to bleed and the serum was collected for subsequent experimental use). Then the mice were killed by breaking the neck thereof. The tumor tissues were taken out and weighed by an electronic balance to calculate the tumor-inhibiting ratio.
All the data were statistically analyzed using SPSS11.0 software pack. The comparison of the enumeration data was carried out with X^2 test. P<0.05 had statistical significance.

[4] abbreviates: large dosage 300 mg/kg i.p. every other day.
The mark [5] stands for this setting: middle dosage 150 mg/Kg i.p. every other day.
The mark [6] stands for this setting: small dosage 75 mg/Kg i.p. every other day.

As to `Cc1nc(C)c(COC(=O)CCC(C)C2CCC3C4CCC5CC(O)CCC5(C)C4CC(O)C23C)nc1C` (stereo not shown) [LQC-Y2, (3,5,6-trimethyl pyrazine-2-yl)methyl-4-(3,12-dihydroxy-10,13-dimethylhexadecahydro-1H-cyclopenta[a]phenanthren-17-yl)pentanoate], the “24 h inhibition ratio (%)” value is recorded as 66.98% in data set [1], 20.09% in data set [2] (10 μg/ml) and 61.2% in data set [2] (20 μg/ml). Further, the “inhibiting effect on the proliferation of Bel7402 cells” value in data set [2] (cultured in vitro, 10-40 μg/ml) was “evident inhibiting effect”. In data set [3], the “vessel growth inhibiting effect” value was “significant inhibiting effect; also recorded: magnificent inhibiting effect”. The “effect on the growth of the sarcoma of S180 mice” value in the data set on S180 sarcoma of mice (75-300 mg/kg i.p.) is given as “Some Effect on Inhibiting the Growth; also recorded: inhibit the growth of S180 tumor effectively”. The “Tumor inhibiting ratio (%)” value with S180 sarcoma of mice (setting [4]) turned out to be 29.15%; with S180 sarcoma of mice (setting [5]), 35.88%; in the data set with S180 sarcoma of mice (setting [6]), 6.87%. In addition, the “Tumor weight” value is 0.92 ± 0.49 g in the data set on S180 sarcoma of mice (setting [4]), 0.84 ± 0.53 g with S180 sarcoma of mice (setting [5]) and 1.22 ± 0.62 g with S180 sarcoma of mice (setting [6]). For the same compound, in the data set with S180 sarcoma of mice (mouse, in vivo), the “effect on the growth of the S180 sarcoma mice's weight” value is “no effect”.
